Reference: ChEMBL document CHEMBL1201862, “PubChem BioAssay data set” (2004)
The source made the active and inactive calls.

Assays:
T-cell = assay: loss of vesicle association with mouse CD8+ T cells – mouse 2C CD8+ T cells, flow cytometry, dose response (AID 485284); format: functional
ORF 73 = target: T1, ORF 73 (Human herpesvirus 8, UniProt O40947); assay: KSHV LANA DNA-binding disruption – biochemical, fluorescence polarization, cherry-picked samples, dose response (AID 504725); design: species or system Human gammaherpesvirus 8;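 also: fluorescence polarization of a labeled DNA duplex reporting LANA DNA binding; potency is for inhibitors that block LANA binding to the DNA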
T1 sequence (O40947 whole entry): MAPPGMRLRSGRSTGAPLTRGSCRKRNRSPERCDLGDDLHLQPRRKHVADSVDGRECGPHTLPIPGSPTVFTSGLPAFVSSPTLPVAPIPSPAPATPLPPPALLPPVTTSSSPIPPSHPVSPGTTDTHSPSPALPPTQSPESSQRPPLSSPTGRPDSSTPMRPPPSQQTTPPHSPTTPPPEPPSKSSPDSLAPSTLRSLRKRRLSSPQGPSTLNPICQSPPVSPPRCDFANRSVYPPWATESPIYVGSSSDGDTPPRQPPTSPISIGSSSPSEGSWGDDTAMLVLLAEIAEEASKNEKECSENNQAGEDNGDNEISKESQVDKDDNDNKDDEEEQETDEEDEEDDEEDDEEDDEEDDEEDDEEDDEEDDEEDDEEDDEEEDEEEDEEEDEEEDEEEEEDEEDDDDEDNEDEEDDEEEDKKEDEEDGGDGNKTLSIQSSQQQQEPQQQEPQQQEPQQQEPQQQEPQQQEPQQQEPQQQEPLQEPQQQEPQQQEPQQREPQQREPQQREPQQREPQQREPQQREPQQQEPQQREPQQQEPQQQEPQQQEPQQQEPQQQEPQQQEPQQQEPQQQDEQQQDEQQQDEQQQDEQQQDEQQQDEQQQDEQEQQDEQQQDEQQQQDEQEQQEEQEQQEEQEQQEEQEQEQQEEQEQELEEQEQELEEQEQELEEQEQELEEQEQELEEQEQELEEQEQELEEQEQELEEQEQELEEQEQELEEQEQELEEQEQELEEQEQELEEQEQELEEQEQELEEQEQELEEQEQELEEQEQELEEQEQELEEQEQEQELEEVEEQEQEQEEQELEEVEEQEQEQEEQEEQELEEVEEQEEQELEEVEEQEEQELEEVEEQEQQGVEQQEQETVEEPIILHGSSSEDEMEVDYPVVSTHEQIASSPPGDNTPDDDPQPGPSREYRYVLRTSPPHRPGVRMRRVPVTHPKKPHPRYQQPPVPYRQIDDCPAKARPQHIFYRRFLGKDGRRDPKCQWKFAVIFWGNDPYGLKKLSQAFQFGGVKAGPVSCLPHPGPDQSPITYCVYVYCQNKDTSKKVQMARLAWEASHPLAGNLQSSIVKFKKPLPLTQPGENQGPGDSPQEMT

Troponin, cardiac muscle = Troponin, cardiac muscle (Homo sapiens, UniProt P19429+P45379+P63316); assay: compounds desensitizing RTF to calcium – biochemical, fluorescence, cardiac regulated thin filaments, triplicate IC50, dose response (AID 504742); format: protein-complex assay
[1] = target: T2, Rac GTPase-activating protein 1 (Homo sapiens, UniProt Q9H0H5); assay: blockers of MgcRacGAP-driven Rac1 GTP hydrolysis – biochemical, ADP Hunter fluorescence, primary and confirmatory, confirmation (AID 624330); format: functional
T2 sequence (Q9H0H5 whole entry): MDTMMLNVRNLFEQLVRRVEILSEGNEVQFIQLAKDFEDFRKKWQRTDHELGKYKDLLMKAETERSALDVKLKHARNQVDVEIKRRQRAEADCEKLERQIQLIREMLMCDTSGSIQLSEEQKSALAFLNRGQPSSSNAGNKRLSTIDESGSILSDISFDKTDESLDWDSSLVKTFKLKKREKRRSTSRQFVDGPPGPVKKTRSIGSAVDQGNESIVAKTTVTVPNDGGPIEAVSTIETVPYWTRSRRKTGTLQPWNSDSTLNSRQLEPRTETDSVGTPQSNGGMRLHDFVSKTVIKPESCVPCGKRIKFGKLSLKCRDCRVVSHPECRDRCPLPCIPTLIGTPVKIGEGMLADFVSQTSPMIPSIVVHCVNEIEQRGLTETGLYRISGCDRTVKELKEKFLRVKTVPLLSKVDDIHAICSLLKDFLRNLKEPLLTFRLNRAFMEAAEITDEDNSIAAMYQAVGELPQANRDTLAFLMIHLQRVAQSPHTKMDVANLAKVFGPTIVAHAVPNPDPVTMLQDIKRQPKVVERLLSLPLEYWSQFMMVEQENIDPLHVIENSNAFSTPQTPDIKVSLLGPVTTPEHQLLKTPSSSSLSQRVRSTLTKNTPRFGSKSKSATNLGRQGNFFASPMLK

[2] = NIH3T3 cell viability loss – ATP luminescence, mouse fibroblasts, counter-screen, dose response (AID 2010); format: functional, cell-based;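 also: cells exposed to compound for about 90 hours before reading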
Vero = assay: mammalian cell viability reduction – secondary assay, cytotoxicity control for West Nile virus antiviral project, dose response (AID 1650); format: functional; settings: Chlorocebus sabaeus
[3] = Trypanosoma cruzi growth suppression in host cells – NIH3T3 host cells, beta-gal luminescence, confirmation (AID 2044); format: functional, cell-based;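 also: intracellular parasites grown in NIH/3T3 mouse fibroblasts as host cells; luminescent beta-galactosidase reporter signal from transgenic T. cruzi replicating inside host cells; inhibitors lower the luminescence signal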
[4] = target: T3, Ubiquitin-conjugating enzyme E2 N (Homo sapiens, UniProt P61088); format: functional;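 also: Dose-response confirmation in a TR-FRET assay detecting UBC13-driven polyubiquitin chain formation, inhibition measured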
T3 sequence (P61088 whole entry): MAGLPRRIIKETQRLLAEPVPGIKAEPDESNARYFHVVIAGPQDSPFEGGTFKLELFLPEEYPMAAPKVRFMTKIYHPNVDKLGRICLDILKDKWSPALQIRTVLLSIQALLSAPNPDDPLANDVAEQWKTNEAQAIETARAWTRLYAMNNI

[5] = target: T4, Short transient receptor potential channel 4 (Mus musculus, UniProt Q9QUQ5); assay: potentiation of DAMGO-evoked TRPC4 calcium signal – cell-based, HEK293 TRPC4/mu-opioid, Fluo-4 calcium, EC20 DAMGO, dose response (AID 434941); format: functional
T4 sequence (Q9QUQ5 whole entry): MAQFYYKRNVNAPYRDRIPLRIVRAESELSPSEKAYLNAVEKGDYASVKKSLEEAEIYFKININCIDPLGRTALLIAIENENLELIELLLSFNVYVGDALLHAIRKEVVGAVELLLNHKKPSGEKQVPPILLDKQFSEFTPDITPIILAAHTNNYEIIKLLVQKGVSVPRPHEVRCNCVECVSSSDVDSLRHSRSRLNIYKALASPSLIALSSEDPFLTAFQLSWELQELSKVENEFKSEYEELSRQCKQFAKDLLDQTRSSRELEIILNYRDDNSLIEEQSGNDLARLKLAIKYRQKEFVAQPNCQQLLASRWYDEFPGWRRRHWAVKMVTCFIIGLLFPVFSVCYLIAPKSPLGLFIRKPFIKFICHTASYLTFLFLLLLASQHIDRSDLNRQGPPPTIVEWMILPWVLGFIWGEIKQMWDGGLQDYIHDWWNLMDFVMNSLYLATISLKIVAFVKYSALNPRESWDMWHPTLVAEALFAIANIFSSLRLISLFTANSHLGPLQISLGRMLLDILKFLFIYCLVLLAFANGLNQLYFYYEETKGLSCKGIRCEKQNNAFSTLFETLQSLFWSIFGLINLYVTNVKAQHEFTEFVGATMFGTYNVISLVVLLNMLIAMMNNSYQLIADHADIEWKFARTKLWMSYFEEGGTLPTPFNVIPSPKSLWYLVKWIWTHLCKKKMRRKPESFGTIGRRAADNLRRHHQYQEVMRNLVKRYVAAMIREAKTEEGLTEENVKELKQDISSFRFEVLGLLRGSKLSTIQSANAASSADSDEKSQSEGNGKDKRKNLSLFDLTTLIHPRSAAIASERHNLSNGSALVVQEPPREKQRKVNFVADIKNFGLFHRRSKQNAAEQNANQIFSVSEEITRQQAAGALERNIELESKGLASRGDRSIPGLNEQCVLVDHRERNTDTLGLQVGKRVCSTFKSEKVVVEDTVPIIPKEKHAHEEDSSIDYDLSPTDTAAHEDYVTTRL

[6] = target: T5, Tyrosine-protein phosphatase non-receptor type 7 (Homo sapiens, UniProt P35236); format: functional
T5 sequence (P35236 whole entry): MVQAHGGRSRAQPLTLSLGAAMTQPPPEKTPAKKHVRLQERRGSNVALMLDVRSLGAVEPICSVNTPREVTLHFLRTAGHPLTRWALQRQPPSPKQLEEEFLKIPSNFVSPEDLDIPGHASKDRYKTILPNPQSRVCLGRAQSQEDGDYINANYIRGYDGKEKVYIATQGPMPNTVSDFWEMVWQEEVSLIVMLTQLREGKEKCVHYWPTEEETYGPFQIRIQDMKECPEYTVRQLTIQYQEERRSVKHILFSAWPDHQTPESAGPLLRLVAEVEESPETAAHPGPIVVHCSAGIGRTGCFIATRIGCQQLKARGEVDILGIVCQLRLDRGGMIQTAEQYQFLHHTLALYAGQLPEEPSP

[7] = HPDE-C7 pancreatic duct cell viability loss – fluorescence, HTS (AID 430); format: functional, cell-based; settings: Homo sapiens
[8] = target: T6, Dual specificity protein phosphatase 6 (Rattus norvegicus, UniProt Q64346)
T6 sequence (Q64346 whole entry): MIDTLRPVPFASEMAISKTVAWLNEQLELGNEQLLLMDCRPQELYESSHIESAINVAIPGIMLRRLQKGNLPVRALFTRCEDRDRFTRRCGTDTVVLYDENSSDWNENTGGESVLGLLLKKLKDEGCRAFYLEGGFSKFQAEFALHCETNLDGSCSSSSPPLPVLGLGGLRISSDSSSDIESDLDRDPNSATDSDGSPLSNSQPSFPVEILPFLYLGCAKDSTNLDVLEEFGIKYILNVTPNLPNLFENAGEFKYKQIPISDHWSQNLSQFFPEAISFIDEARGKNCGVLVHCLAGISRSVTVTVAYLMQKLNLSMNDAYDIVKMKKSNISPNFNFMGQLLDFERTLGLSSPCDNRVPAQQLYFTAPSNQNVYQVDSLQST

[9] = target: Dual specificity protein phosphatase 3 (Homo sapiens, UniProt P51452); assay: SAR VHR1 Fluorescent Assay for In Vitro dose response studies. [Related pubchem assays (depositor defined):AID1654, AID1661, AID1878, AID1992, AID2004, AID2070, AID2085]; format: functional
Large T antigen = Large T antigen (Simian virus 40, UniProt P03070); format: functional, Betapolyomavirus macacae;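 also: Confirmatory-stage PubChem screen for compounds that inhibit SV40 T antigen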
Phospholipase A2 = Phospholipase A2 (Homo sapiens, UniProt P04054); format: functional;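 also: confirmatory dose-response counterscreen on phospholipase A2, testing hits that came from an ultra-high-throughput screen for ATG4B inhibitors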
[10] = target: Glyceraldehyde-3-phosphate dehydrogenase (Homo sapiens, UniProt P04406)
Cysteine protease ATG4B = target: T7, Cysteine protease ATG4B (Homo sapiens, UniProt Q9Y4P1); format: functional;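 also: Fluorescence-based dose-response confirmation assay measuring inhibition of ATG4B activity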
T7 sequence (Q9Y4P1 whole entry): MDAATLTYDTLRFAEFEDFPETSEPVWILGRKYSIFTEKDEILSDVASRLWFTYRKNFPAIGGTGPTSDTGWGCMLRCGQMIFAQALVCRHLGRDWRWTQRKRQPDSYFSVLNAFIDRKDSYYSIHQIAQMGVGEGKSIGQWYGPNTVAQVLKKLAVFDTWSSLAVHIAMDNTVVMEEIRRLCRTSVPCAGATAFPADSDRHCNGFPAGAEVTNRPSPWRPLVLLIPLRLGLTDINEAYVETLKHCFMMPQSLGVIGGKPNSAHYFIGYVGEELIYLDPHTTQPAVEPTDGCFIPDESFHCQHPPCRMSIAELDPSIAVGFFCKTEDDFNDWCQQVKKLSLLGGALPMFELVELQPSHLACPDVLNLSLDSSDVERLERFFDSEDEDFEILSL

Ephrin type-A receptor 4 = Ephrin type-A receptor 4 (Mus musculus, UniProt Q03137); assay: EphA4 ligand-binding antagonists – biochemical, colorimetric, mouse EphA4, primary screen (AID 689); format: functional
[11] = target: T5, Tyrosine-protein phosphatase non-receptor type 7; assay: redox-active compounds inhibiting HePTP phosphatase – biochemical, fluorescence, mechanism study (AID 2068); format: functional
[12] = target: T6, Dual specificity protein phosphatase 6; format: functional
[13] = viability loss of HPDE-C7K cells – cell-based, fluorescence, HTS, primary screen (AID 431); format: functional; settings: Homo sapiens

Chain of Glyceraldehyde-3-phosphate dehydrogenase (P04406 whole entry): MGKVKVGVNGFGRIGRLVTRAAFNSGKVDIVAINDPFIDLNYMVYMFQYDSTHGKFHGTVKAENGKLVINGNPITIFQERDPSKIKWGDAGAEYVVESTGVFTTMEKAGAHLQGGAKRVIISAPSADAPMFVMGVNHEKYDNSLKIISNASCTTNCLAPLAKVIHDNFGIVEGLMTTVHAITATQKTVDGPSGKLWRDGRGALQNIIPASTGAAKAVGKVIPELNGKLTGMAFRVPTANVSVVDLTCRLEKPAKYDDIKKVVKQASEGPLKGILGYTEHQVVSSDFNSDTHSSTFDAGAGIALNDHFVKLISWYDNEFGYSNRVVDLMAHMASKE
Chain of Phospholipase A2 (P04054 whole entry): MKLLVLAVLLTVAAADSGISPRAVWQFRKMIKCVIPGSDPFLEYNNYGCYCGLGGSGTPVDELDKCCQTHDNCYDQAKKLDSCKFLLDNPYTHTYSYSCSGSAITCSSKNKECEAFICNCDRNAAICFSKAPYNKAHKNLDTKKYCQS
Chain of Large T antigen (P03070 whole entry): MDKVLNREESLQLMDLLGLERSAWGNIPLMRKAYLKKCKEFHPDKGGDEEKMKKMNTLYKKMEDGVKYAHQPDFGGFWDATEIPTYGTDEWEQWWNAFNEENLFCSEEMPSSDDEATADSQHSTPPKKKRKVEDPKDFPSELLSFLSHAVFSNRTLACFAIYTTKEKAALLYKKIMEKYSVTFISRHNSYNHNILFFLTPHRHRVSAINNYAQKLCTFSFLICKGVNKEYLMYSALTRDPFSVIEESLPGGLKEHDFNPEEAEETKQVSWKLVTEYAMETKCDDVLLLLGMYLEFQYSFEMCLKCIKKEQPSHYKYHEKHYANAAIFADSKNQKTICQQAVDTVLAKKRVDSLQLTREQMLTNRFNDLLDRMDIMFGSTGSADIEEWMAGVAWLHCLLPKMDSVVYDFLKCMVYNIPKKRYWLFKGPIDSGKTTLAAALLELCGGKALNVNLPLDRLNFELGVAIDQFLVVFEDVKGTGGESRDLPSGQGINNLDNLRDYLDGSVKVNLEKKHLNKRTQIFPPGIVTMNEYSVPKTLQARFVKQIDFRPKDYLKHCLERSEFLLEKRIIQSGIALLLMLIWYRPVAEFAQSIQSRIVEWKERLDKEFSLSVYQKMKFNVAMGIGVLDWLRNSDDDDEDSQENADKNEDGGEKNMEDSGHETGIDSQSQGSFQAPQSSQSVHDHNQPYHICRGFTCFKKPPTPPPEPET
Chain of Ephrin type-A receptor 4 (Q03137 whole entry): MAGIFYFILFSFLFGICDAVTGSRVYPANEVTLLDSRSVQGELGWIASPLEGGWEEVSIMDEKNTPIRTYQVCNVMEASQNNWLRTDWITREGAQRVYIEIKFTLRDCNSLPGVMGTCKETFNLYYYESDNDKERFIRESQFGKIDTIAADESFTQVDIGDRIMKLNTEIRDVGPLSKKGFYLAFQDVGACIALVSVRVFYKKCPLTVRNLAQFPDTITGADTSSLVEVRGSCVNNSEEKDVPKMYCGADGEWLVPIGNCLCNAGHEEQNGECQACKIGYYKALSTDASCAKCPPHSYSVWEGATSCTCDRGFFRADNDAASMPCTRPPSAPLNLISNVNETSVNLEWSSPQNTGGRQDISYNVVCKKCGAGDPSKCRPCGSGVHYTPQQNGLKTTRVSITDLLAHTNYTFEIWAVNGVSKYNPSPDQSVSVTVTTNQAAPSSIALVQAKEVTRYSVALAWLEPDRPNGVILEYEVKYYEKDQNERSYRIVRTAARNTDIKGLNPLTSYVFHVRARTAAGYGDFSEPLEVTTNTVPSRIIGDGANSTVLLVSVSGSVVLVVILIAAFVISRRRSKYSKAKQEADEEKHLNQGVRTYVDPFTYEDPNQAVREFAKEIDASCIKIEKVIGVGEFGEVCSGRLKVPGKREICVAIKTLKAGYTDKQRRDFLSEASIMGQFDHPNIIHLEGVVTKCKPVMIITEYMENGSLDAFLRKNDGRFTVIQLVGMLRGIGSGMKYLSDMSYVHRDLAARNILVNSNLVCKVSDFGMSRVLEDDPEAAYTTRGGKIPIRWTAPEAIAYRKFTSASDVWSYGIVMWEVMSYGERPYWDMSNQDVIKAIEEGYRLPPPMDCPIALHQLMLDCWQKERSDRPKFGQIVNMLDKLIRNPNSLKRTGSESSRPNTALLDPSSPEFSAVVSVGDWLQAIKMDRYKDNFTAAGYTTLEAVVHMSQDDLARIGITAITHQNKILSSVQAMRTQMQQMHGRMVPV
Chain of Dual specificity protein phosphatase 3 (P51452 whole entry): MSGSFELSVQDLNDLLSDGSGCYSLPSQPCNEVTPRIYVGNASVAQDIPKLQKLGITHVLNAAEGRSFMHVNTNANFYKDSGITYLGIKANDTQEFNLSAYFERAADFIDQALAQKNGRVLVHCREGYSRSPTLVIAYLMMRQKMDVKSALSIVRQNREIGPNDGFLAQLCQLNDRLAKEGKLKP

Structure (SMILES): CCC1(C)NC(=O)N(CC(=O)N2N=C(c3ccccc3)CC2c2ccc(OC)cc2)C1=O (stereo not drawn)
- EC50 (T-cell): 16.1 µM (active)

Structure (SMILES): O=C1C(=Cc2ccco2)CCC1=Cc1ccco1
- AC50 (ORF 73): 63 µM (active)
- IC50 (Troponin, cardiac muscle): > 71.5 µM (inactive)
- IC50 [1]: 32.4 µM (active)

Structure (SMILES): CCCCN(CC)CCNC(=O)c1cc2c(=O)n(C)c3ccccc3c2s1
- EC50 [2]: > 60 µM (not active)
- CC50 (Vero): 69 µM (active)
- EC50 [3]: 2.29 µM (active)
- IC50 [4]: > 20 µM (inactive)
- EC50 [5]: 0.07 µM (active)

Structure (SMILES): Cc1cc2oc(C(=O)N(Cc3ccccc3)C3CCS(=O)(=O)C3)cc(=O)c2cc1Cl (stereo not drawn)
- EC50 [5]: 3.76 µM (active)

Structure (SMILES): Cc1cccc(NC(=O)C2CCN(S(=O)(=O)c3c(C)nc(O)nc3O)CC2)c1
- EC50 (T-cell): 8.65 µM (active)

Structure (SMILES): Clc1ccccc1CSc1nnc(-c2ccco2)c(-c2ccco2)n1
- IC50 [6]: 10.4 µM (active)
- EC50 [7]: 15 µM (active)
- IC50 [8]: 31.2 µM (active)
- IC50 [9]: 19.7 µM (active)
- IC50 (Large T antigen): 54.4 µM (active)
- IC50 (Phospholipase A2): 7.53 µM (active)
- IC50 [10]: > 100 µM (not active)
- IC50 (Cysteine protease ATG4B): 11.4 µM (active)
- IC50 (Ephrin type-A receptor 4): 2.46 µM (active)
- IC50 [11]: 0.329 µM (active)
- IC50 [12]: 24.2 µM (active)
- EC50 [13]: 15.4 µM (active)
